Consider five compounds from patent publication US5246931A, “Carbocyclic nucleoside analogs” (priority 1991, dated 1993).

One data set concerns HSV-1 (E-377). Briefly: Plaque reduction in Vero cells, HSV-1 (E-377). The class given is cell-based, Herpes simplex virus type 1. To be noted: Human alphaherpesvirus 1, read-out: MIC50. How it is done: (§1) A-2. Alternate Method for Evaluation of Compounds for Activity Against Herpes Simplex Virus Types 1 and 2
(§2) Confluent Vero cell monolayers were infected with a dilution of stock virus which yielded approximately 100 plaque forming units (pfu) per well. After the adsorption period, the infected cell monolayers were treated in duplicate with serial dilutions of the test compound. Duplicate cell controls containing medium alone and virus controls containing medium and virus were run simultaneously with the test compound. After incubation for 3 to 4 days to allow for the development of visible, discrete plaques in the untreated, virus infected control cultures, the monolayers were fixed with formaldehyde and stained with crystal violet. Plaques visible to the unaided eye were counted and the mean number of plaques in the duplicate wells for each compound concentration tested and for the untreated, virus infected controls were determined. The concentration of test compound which reduced by 50% the mean number of plaques in the untreated, virus infected control cultures was then determined and expressed as the ID50.

The next data set relates to HSV-2. Briefly: Plaque reduction in Vero cells, HSV-2. Conditions: Human alphaherpesvirus 2, HSV-2, Vero, read-out: MIC50. Type of data set: cell-based, Herpes simplex virus type 2. The procedure:
as §1, §2

For the next data set, the system named is HSV-1 (123). Briefly: Plaque reduction in Vero cells, HSV-1 (123). The class given is cell-based, Herpes simplex virus type 1. Conditions: Human alphaherpesvirus 1, read-out: MIC50. The procedure:
as §1, §2

Data set [1] has as its system Varicella-Zoster Virus (clinical isolate DM625). As to the kind of experiment: microbe, parasite or virus in culture. Type of data set: cell-based. To be noted: Human alphaherpesvirus 3, Fibroblast, 120 h; read-out: MIC50.
Data set [2] deals with human foreskin fibroblasts (HFF). Briefly: MTT cytotoxicity assay in human foreskin fibroblasts.
In data set [3] the test system is Herpesvirus 1 (strain 123). Briefly: In vivo activity against Herpesvirus 1 in mice (intraperitoneal challenge). Set-up: species or system Swiss mice (CD-1). The procedure:
E. Evaluation of Compounds for In Vivo Activity Against Herpesvirus 1 in Mice
(§3) Four-week-old female outbred Swiss mice (CD-1, VAF+, Charles River Labs) were housed 5 per Microisolator® cage. Feed and water were supplied ad libitum. Fifteen mice were randomly assigned to each of the following treatment groups:
(§4) Test compounds were diluted in 0.4% caboxymethylcellulose (CMC) prepared in phosphate buffered saline (PBS) at aconcentrations consistent with dosing at 0.1 ml per 10 g of body weight. Compounds were administered subcutaneously once daily for a total of 7 doses. Five mice in each treatment group served as uninfected toxicity controls. The remaining ten mice in each group were challenged intraperitoneally with an LD90 dose of the twelfth in vivo passage of Herpesvirus 1 (strain 123). Virus challenge was administered two hours after the first dose of compound was given. Mortality was monitored daily for 21 days. The mortality rates, average day of death, geometric mean time to death and virus rating were calculated for each treatment group.

Data set [4] concerns duck hepatitis B virus (DHBV). Briefly: Efficacy against hepatitis B virus in vivo in ducklings. Set-up: species or system Pekino ducklings. To be noted: for Serum DHBV DNA: after treatment (days 10-17). The procedure:
F. Evaluation of Compounds for Efficacy Against Hepatitis B Virus In Vivo in Ducklings
The test method is an adaptation of the method of Smee, et al., Antimicrob. Agents Chemotherap. 27 277 (1985). The serum level of duck hepatitis B virus (DHBV) DNA was monitored in 6 infected Pekino ducklings from age 6 days to age 27 days. Four ducklings were treated with 70 mg/kg/day IP, b.i.d. of the test compound as a 3 mg/ml solution in 0.9% aqueous NaCl on days 10-17. Two control ducklings were treated with 23 ml/kg/day IP, b.i.d. of 0.9% aqueous NaCl on days 10-17. The level of DHBV DNA in the duckling serum was measured daily.

Data set [5] has as its system Herpes simplex type 1 (HSV-1) strain E-377. As to the kind of experiment: CPE inhibition assay, HSV-1 (E-377) in Vero cells. Conditions: for VR (virus rating): HSV-1 (E-377), Vero.
Data set [6] can be described thus: Toxicity in uninfected mice. Conditions: subcutaneous once daily, 7 doses. Type of data set: in vivo, Swiss mice (CD-1). How it is done: as §3, §4
Data set [7] concerns Herpes simplex type 2 (HSV-2) strain MS. As to the kind of experiment: CPE inhibition assay, HSV-2 (MS) in Vero cells.
In data set [8] the test system is Herpes simplex type 1 (HSV-1) strain E-377. Conditions: monkey, vero cells.
Data set [9] has as its system Herpes simplex type 2 (HSV-2) strain MS. To be noted: monkey, vero cells.
The test system of data set [10] is African green monkey kidney (Vero) cells. Briefly: Drug cytotoxicity in Vero host cells (CPE assay). To be noted: Vero.
Data set [11] in a line: Drug cytotoxicity in Vero host cells (CPE assay). Conditions: monkey, vero cells.

The structures appear in SMILES notation. Values after ≈ are worked out from the molar mass of the structure shown. Values joined by “and” are separate entries in the source; they are usually repeats but may differ in a detail not shown here. Identical values can stand only once.

For the compound `Nc1nc2c(ncn2C2CC(CO)C2O)c(=O)[nH]1` (stereo not shown) [Example 42P, 9-(2'-hydroxy-3'-hydroxymethyl-1'-cyclobutyl)guanine], the IC50 in the data set on HSV-1 (E-377) came out at 1 µg/mL (≈ 3.98 µM); in the data set with HSV-2, 1 µg/mL (≈ 3.98 µM); in the data set with HSV-1 (123) it was 3 µg/mL (≈ 11.9 µM).

`Nc1nc2c(ncn2C2CC(CO)C2CO)c(=O)[nH]1` (stereo not shown) [Example 1I, 9-(2',3'-Bis(hydroxymethyl)cyclobutyl)guanine]: the IC50 in data set [1] stood at 1.4 µg/mL (≈ 5.28 µM); in the data set with HSV-1 (E-377), 0.5 µg/mL (≈ 1.88 µM); in the data set on HSV-2, 1 µg/mL (≈ 3.77 µM); with HSV-1 (123), 1 µg/mL (≈ 3.77 µM). The “MTT Assay” value is 79 % of control in [2] (3.2 ug/ml), 76 % of control in data set [2] (10 ug/ml), 72 % of control in [2] (32 ug/ml) and 62 % of control in data set [2] (100 ug/ml). For the same compound, the figures for the “VR (virus rating) = GMTD of experimental/GMTD of diluent treated control” value in data set [3] (3.2 mg/kg), in data set [3] (10 mg/kg) and in data set [3] (32 mg/kg) were 1.3, 1.6 and 2.5, respectively. In addition, the “Deaths of treated ducks” value in data set [4] (DHBV-infected ducklings, 70 mg/kg/day IP b.i.d. on days 10-17) was “ducks 3 and 4 died on day 18 and day 26, respectively”. Moreover, the “Serum DHBV DNA” value in [4] (age 18 days, lines = ducks 1-4 in order) was less than 1 ng/mL; in data set [4] (age 19 days, lines = ducks 1, 2, 4), less than 1 ng/mL; in [4] (age 20 days, lines = ducks 1, 2, 4) it was less than 1 ng/mL; in [4] (age 21 days, lines = ducks 1, 2, 4), less than 1 ng/mL. For the same compound, the “VR (virus rating)” value in data set [5] was 5.7 and 5.1; in data set [7] it was 4.1 and 3.4. Also, the “No. Dead/No. Uninfected” value in data set [6] (3.2 mg/kg) is 0/5; in [6] (10 mg/kg), 0/5; in data set [6] (32 mg/kg), 0/3.

`Nc1nc(Cl)c2ncn(C3CC(CO)C3CO)c2n1` (stereo not shown) [Example 1H, 3-(2'-Amino-6'-chloro-9'H-purin-9'-yl)-1,2-bis(hydroxymethyl)cyclobutane]: the “VR (virus rating)” value is 1.4 in [5]; 0.6 and 0.5 in [7].

`Nc1nc2c(ncn2C2CC(CO)C2)c(=O)[nH]1` (stereo not shown) [Example 5G, 9-(3'-(Hydroxymethyl)cyclobutyl)guanine]: the entries for the “TI: therapeutic index, minimum cytotoxic drug concentration / ID50” value in data set [8] and in data set [9] were greater than 2.2 and greater than 1.0, respectively. Further, the entries for the “VR (virus rating)” value in data set [5] and in [7] were 2.1 and 0.9, respectively. For the same compound, the IC50 in data set [5] (Human alphaherpesvirus 1, Vero, read-out: ID50: minimum drug concentration that inhibited the CPE by 50%) was found to be 146 µg/mL (≈ 621 µM). The “MTC: minimum drug concentration causing any cytotoxicity” value in data set [10] (HSV-2 (MS) assay) was greater than 320 µg/mL. This compound also displayed an MCC in data set [11] greater than 320 µg/mL.

With `Nc1ncnc2c1ncn2C1CC(CO)C1CO` (stereo not shown) [Example 4C, 9-(2',3'-Bis(hydroxymethyl)cyclobutyl)adenine], the “TI: therapeutic index, minimum cytotoxic drug concentration / ID50” value in data set [9] was 5.5. Further, in data set [7], the “VR (virus rating)” value turned out to be 1.8. The “MTC: minimum drug concentration causing any cytotoxicity” value in [10] (HSV-1 (E-377) assay) stood at 32 µg/mL; in data set [10] (HSV-2 (MS) assay) it was 100 µg/mL.
